Laboratory results taken from the kinase profiling compilation of Christmann-Franck et al. (2016).

Experiments:
Assay in all cases: radiometric filter-binding kinase assay, Kinase HotSpot
Details in all cases: compound 0.5 µM; ATP 10 µM
ADRBK2 (human) = ADRBK2 (human) (UniProt P35626)
AKT1 (human) = AKT1 (human) (UniProt P31749)
CAMKK2 (human) = CAMKK2 (human) (UniProt Q96RR4)
CDK4 CCND1 (human) = CDK4 CCND1 (human) (UniProt P24385+P11802)
CLK3 (human) = CLK3 (human) (UniProt P49761)
CSNK1A1 (human) = CSNK1A1 (human) (UniProt P48729)
CSNK1E (human) = CSNK1E (human) (UniProt P49674)
CSNK2A2 (human) = CSNK2A2 (human) (UniProt P19784)
DYRK3 (human) = DYRK3 (human) (UniProt O43781)
EPHA5 (human) = EPHA5 (human) (UniProt P54756)
EPHA8 (human) = EPHA8 (human) (UniProt P29322)
EPHB2 (human) = EPHB2 (human) (UniProt P29323)
ERBB4 (human) = ERBB4 (human) (UniProt Q15303)
FLT1 (human) = FLT1 (human) (UniProt P17948)
GRK4 (human) = GRK4 (human) (UniProt P32298)
IKBKB (human) = IKBKB (human) (UniProt O14920)
IKBKE (human) = IKBKE (human) (UniProt Q14164)
INSR (human) = INSR (human) (UniProt P06213)
KDR (human) = KDR (human) (UniProt P35968)
MAP3K14 (human) = MAP3K14 (human) (UniProt Q99558)
MAP3K7 TAB1 (human) = MAP3K7 TAB1 (human) (UniProt O43318+Q15750)
MAP4K4 (human) = MAP4K4 (human) (UniProt O95819)
MAP4K5 (human) = MAP4K5 (human) (UniProt Q9Y4K4)
MAPKAPK2 (human) = MAPKAPK2 (human) (UniProt P49137)
MLTK (human) = MLTK (human) (UniProt Q9NYL2)
MUSK (human) = MUSK (human) (UniProt O15146)
MYLK2 (human) = MYLK2 (human) (UniProt Q9H1R3)
NEK11 (human) = NEK11 (human) (UniProt Q8NG66)
PAK3 (human) = PAK3 (human) (UniProt O75914)
PASK (human) = PASK (human) (UniProt Q96RG2)
PDGFRB (human) = PDGFRB (human) (UniProt P09619)
PKN1 (human) = PKN1 (human) (UniProt Q16512)
PLK2 (human) = PLK2 (human) (UniProt Q9NYY3)
PRKACA (human) = PRKACA (human) (UniProt P17612)
PRKCA (human) = PRKCA (human) (UniProt P17252)
PRKCG (human) = PRKCG (human) (UniProt P05129)
PRKD3 (human) = PRKD3 (human) (UniProt O94806)
RAF1 (human) = RAF1 (human) (UniProt P04049)
RET (human) = RET (human) (UniProt P07949)
RPS6KA5 KD2 (human) = RPS6KA5 KD2 (human) (UniProt O75582)
STK11 (human) = STK11 (human) (UniProt Q15831)
TSSK2 (human) = TSSK2 (human) (UniProt Q96PF2)

Chain of MYLK2 (human) (Q9H1R3 whole entry, looked up): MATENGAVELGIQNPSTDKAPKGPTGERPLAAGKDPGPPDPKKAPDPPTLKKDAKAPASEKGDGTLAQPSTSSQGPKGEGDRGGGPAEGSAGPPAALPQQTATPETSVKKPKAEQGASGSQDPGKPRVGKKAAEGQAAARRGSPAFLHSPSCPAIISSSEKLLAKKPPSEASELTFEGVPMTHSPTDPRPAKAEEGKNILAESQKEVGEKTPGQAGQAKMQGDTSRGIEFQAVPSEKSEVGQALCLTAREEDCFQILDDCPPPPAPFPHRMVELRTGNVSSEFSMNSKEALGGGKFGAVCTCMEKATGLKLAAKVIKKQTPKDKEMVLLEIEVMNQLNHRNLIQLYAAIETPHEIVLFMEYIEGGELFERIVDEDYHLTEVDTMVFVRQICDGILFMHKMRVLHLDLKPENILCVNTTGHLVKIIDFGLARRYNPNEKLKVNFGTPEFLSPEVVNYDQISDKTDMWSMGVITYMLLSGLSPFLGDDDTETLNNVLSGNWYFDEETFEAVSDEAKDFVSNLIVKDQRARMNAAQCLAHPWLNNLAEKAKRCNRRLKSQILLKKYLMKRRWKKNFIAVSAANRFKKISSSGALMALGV
Chain of ERBB4 (human) (Q15303 whole entry, looked up): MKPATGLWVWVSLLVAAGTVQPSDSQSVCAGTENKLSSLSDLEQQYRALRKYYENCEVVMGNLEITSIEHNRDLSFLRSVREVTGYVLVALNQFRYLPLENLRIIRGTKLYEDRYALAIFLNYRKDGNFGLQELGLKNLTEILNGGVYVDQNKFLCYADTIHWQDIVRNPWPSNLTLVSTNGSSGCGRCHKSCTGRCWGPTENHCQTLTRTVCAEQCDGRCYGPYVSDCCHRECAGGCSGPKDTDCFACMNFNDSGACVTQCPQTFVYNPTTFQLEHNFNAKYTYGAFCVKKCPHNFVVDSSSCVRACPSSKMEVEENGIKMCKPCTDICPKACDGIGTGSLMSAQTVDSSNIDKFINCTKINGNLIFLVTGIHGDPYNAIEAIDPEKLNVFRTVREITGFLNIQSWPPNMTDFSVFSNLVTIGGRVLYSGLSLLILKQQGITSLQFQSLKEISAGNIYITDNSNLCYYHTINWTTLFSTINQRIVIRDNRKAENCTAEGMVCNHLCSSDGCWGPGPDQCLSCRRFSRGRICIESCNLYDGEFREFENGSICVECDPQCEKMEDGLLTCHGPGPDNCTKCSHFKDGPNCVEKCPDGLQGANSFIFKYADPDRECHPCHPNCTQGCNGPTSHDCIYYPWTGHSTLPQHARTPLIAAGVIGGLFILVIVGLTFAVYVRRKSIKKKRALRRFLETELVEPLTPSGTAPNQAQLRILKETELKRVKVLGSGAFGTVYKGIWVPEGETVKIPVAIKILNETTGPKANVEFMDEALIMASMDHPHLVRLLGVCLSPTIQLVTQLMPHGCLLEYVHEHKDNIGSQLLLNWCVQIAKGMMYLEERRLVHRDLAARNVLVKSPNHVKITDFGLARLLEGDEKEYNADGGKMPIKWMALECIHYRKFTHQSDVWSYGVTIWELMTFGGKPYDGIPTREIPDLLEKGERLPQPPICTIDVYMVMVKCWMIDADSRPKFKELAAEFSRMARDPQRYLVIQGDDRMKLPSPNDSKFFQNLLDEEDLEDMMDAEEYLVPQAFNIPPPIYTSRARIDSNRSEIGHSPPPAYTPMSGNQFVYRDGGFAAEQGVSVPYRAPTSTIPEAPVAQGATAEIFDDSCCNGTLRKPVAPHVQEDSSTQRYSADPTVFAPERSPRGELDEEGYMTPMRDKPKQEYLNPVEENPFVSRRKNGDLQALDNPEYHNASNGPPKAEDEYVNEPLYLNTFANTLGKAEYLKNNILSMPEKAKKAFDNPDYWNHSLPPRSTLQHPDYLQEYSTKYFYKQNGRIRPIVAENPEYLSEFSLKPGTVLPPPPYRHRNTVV
Chain of PAK3 (human) (O75914 whole entry, looked up): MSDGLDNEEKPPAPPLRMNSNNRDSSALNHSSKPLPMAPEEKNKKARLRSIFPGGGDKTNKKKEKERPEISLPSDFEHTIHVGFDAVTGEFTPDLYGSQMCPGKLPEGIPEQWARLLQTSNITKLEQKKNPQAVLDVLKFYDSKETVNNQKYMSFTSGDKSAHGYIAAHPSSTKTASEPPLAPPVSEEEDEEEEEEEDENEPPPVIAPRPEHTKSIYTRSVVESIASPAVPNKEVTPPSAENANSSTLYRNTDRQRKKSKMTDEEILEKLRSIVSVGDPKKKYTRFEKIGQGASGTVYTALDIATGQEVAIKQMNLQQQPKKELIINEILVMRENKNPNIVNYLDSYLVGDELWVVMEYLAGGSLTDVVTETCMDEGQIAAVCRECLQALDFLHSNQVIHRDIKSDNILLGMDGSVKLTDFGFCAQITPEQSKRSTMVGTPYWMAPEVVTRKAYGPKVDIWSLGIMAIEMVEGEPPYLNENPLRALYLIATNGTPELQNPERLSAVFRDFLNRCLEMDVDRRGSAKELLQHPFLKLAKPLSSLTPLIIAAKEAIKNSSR
Chain of IKBKE (human) (Q14164 whole entry, looked up): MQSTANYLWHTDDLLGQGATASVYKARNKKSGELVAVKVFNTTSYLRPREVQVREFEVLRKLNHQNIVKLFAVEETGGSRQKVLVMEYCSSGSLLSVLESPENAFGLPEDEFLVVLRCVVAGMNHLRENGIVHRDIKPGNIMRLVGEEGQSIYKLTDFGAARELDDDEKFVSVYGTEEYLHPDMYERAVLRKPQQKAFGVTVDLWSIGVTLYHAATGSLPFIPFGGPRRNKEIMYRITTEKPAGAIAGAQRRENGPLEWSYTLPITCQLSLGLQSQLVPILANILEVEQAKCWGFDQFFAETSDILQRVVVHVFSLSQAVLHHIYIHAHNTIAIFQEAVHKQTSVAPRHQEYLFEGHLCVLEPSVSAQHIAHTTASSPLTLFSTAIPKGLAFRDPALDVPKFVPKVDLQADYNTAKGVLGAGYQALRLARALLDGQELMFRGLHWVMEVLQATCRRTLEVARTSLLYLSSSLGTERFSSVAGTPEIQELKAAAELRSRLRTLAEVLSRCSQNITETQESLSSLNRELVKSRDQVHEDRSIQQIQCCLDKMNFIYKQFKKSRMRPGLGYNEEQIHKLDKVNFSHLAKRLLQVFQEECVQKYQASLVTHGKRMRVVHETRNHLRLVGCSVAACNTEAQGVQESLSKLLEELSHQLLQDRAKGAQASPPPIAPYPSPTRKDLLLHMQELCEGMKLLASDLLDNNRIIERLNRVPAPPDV
Chain of MAP4K4 (human) (O95819 whole entry, looked up): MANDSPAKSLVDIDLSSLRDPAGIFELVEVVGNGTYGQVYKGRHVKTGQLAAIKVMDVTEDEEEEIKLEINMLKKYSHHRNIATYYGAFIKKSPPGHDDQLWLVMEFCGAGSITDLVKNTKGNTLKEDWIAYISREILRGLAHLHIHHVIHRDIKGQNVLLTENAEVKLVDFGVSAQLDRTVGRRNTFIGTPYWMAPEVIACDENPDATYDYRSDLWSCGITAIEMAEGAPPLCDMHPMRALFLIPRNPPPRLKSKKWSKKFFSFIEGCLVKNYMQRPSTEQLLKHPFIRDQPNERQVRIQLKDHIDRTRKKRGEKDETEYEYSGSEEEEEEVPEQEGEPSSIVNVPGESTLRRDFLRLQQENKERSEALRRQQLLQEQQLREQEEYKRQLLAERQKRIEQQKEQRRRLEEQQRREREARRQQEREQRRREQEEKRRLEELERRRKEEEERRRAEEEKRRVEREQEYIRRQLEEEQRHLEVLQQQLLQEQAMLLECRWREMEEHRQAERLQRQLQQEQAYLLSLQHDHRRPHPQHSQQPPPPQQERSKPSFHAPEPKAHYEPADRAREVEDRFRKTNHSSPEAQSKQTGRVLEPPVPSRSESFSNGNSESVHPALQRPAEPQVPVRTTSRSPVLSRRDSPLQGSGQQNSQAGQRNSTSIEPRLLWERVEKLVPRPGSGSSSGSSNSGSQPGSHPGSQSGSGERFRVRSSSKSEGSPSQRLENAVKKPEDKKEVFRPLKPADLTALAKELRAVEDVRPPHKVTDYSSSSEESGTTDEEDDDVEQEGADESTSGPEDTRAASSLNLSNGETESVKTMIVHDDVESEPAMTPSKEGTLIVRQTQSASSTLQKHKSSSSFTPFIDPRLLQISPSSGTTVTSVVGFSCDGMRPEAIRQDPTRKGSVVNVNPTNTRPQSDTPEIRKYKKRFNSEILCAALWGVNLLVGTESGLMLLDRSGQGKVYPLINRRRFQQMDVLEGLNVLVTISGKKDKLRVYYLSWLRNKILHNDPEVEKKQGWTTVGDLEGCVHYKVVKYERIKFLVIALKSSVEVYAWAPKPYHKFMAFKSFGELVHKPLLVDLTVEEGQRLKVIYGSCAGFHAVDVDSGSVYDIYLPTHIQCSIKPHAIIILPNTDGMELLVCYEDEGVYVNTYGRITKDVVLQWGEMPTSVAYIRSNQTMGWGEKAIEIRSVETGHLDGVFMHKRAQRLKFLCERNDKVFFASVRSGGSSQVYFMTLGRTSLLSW
Chain of RAF1 (human) (P04049 whole entry, looked up): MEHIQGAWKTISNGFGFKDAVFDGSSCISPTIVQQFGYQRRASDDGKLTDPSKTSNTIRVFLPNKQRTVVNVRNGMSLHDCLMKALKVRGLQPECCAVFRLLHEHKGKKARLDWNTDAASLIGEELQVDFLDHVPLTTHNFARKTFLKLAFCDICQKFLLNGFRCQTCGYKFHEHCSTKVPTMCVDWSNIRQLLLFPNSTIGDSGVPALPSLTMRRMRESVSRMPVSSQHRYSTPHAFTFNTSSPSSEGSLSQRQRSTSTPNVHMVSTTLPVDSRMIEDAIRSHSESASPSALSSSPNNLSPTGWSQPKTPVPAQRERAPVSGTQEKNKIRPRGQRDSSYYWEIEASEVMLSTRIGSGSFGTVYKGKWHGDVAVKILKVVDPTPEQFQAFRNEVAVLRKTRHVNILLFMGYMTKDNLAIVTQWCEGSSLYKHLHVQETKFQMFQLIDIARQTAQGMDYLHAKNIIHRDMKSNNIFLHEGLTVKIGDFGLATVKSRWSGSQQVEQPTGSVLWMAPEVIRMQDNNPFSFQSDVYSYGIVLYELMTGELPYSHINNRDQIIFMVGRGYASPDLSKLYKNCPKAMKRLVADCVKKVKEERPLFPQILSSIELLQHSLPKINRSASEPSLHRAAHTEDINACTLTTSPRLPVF

Work on `O=C(Nc1cccc(Nc2nccc(Nc3cccc(C(F)(F)F)c3)n2)c1)C1CC1` yielded a residual activity (ADRBK2 (human)) of 93.1%, a residual activity (AKT1 (human)) of 109% and a residual activity (CAMKK2 (human)) of 99.5%. For the same compound, the residual activity (CDK4 CCND1 (human)) was 101%, the residual activity (CLK3 (human)) was 104% and the residual activity (CSNK1A1 (human)) was 95.8%. For the same compound, the residual activity (CSNK1E (human)) was 110%, the residual activity (CSNK2A2 (human)) was 95.4% and the residual activity (DYRK3 (human)) was 101%. The residual activity (EPHA5 (human)) was 96.2%, the residual activity (EPHA8 (human)) was 96.3% and the residual activity (EPHB2 (human)) was 97.8%. For the same compound, the residual activity (ERBB4 (human)) was 103%, the residual activity (FLT1 (human)) was 97% and the residual activity (GRK4 (human)) was 96.9%. For the same compound, the residual activity (IKBKB (human)) was 97.9%, the residual activity (IKBKE (human)) was 97.5% and the residual activity (INSR (human)) was 89.8%. It also gave a residual activity (KDR (human)) of 91.6%, a residual activity (MAP3K14 (human)) of 109% and a residual activity (MAP3K7 TAB1 (human)) of 87.4%. It also gave a residual activity (MAP4K4 (human)) of 92.4%, a residual activity (MAP4K5 (human)) of 94.9% and a residual activity (MAPKAPK2 (human)) of 102%. For the same compound, the residual activity (MLTK (human)) was 110%, the residual activity (MUSK (human)) was 101% and the residual activity (MYLK2 (human)) was 93.6%. It also gave a residual activity (NEK11 (human)) of 102%, a residual activity (PAK3 (human)) of 98.9% and a residual activity (PASK (human)) of 106%. It also gave a residual activity (PDGFRB (human)) of 101%, a residual activity (PKN1 (human)) of 93.3% and a residual activity (PLK2 (human)) of 99.5%. For the same compound, the residual activity (PRKACA (human)) was 91.7%, the residual activity (PRKCA (human)) was 71.9% and the residual activity (PRKCG (human)) was 90.9%. It also gave a residual activity (PRKD3 (human)) of 91.9%, a residual activity (RAF1 (human)) of 98.7% and a residual activity (RET (human)) of 88.6%. The residual activity (RPS6KA5 KD2 (human)) was 101%, the residual activity (STK11 (human)) was 82.8% and the residual activity (TSSK2 (human)) was 97.1%.

In the case of `CCC(=O)Nc1ccc2ncnc(Nc3cccc(Br)c3)c2c1`, the residual activity (ADRBK2 (human)) is reported as 99.2%, the residual activity (AKT1 (human)) is reported as 95.8% and the residual activity (CAMKK2 (human)) is reported as 84.3%. It also gave a residual activity (CDK4 CCND1 (human)) of 101%, a residual activity (CLK3 (human)) of 99.3% and a residual activity (CSNK1A1 (human)) of 97%. The residual activity (CSNK1E (human)) was 98.2%, the residual activity (CSNK2A2 (human)) was 61.4% and the residual activity (DYRK3 (human)) was 92.3%. It also gave a residual activity (EPHA5 (human)) of 101%, a residual activity (EPHA8 (human)) of 96.6% and a residual activity (EPHB2 (human)) of 95.1%. For the same compound, the residual activity (ERBB4 (human)) was 82.3%, the residual activity (FLT1 (human)) was 86.9% and the residual activity (GRK4 (human)) was 96.2%. The residual activity (IKBKB (human)) was 94.9%, the residual activity (IKBKE (human)) was 94.9% and the residual activity (INSR (human)) was 101%. The residual activity (KDR (human)) was 96.5%, the residual activity (MAP3K14 (human)) was 116% and the residual activity (MAP3K7 TAB1 (human)) was 94%. For the same compound, the residual activity (MAP4K4 (human)) was 91.1%, the residual activity (MAP4K5 (human)) was 89% and the residual activity (MAPKAPK2 (human)) was 87.1%. It also gave a residual activity (MLTK (human)) of 96%, a residual activity (MUSK (human)) of 87.8% and a residual activity (MYLK2 (human)) of 96.4%. For the same compound, the residual activity (NEK11 (human)) was 103%, the residual activity (PAK3 (human)) was 105% and the residual activity (PASK (human)) was 88.7%. For the same compound, the residual activity (PDGFRB (human)) was 98%, the residual activity (PKN1 (human)) was 101% and the residual activity (PLK2 (human)) was 108%. It also gave a residual activity (PRKACA (human)) of 94.6%, a residual activity (PRKCA (human)) of 96.5% and a residual activity (PRKCG (human)) of 102%. For the same compound, the residual activity (PRKD3 (human)) was 85.9%, the residual activity (RAF1 (human)) was 98.4% and the residual activity (RET (human)) was 106%. It also gave a residual activity (RPS6KA5 KD2 (human)) of 90%, a residual activity (STK11 (human)) of 103% and a residual activity (TSSK2 (human)) of 82.8%.
